B1: α3β-HBSSOS-Flu (peptide)
peptide: FEGIYRLELLKAEEANK
modifications: not fully specified; printed as ZFEG*iYRLeLLKaEEANK(Flu)-NH2: Z = N-terminal 5-hexenoic acid residue; G* (position 3) = bridged allylglycine residue (hydrogen bond surrogate macrocycle between Z and G3); lowercase i (position 4), e (position 8), a (position 12) = β3-residues; K17 carries fluorescein (Flu); C-terminal amide

Tests used:
[1] = test system: panel of six human cancer cell lines; experiment: Growth and viability of a panel of six human cancer cell lines; assay type: cell-based; settings: single administration of 5 μM, six days
Method: Various indicated cell lines were plated at low density (˜500-1000 cells per well) in a 96-well format. 12 hours post-plating, media was supplemented with either PBS vehicle, or indicated dosage, and cells were allowed to grow for ˜5.5 days. Cells were subsequently fixed for 1 hour with a 3.7% formaldehyde solution in PBS, and stained with Syto-60 nucleic acid stain (MANUFACTURER) in solution (1:2000 Syto-60, 0.5% Triton X-100, 100 ug/mL RNAse-A, in PBS). Syto-60 stained cells were subjected to quantitative imaging in 96-well plates (Odyssey® Imager, LI-COR Biosciences; excitation: 652; emission: 678) with a 3.0 mm z-axis offset to the scan-head to get the cellular nuclei in the optimal focal plane for quantification. Absolute fluorescence intensity was normalized to the vehicle control for each respective cell line at each dose. Normalized values were visualized on a semilog plot, and data was subjected to non-linear sigmoidal dose-response to determine half-maximal effective concentration (EC50) using GraphPad Prism version 6.00 for OSX, (GraphPad Software, La Jolla Calif. USA, www.graphpad.com).
To investigate the functional consequence of inhibiting Ras activation in the context of oncogenic mutations, we examined the effect of α3β-HBSSOS on the growth and viability of cancer cells of different origins. We selected a panel of six human cancer cell lines derived from the pancreas, colon, and bladder, which harbor a variety of oncogenic proteins including mutant KRas (Table 3).
α3β-HBSSOS reduces cell viability in a dose dependent manner, with the effect spanning over four orders of magnitude. We divided the cell lines into two groups with respect to EC50 values (Table 3). […] We hypothesized that differential cellular uptake may account for the different potency of the peptides between the oncogenic and wild type RTK-Ras cell lines.

wild type HRas = biological target: T1, wild type HRas (Homo sapiens, UniProt P01112); experiment: RBD-pulldown of GTP-loaded Ras in MIA PaCa-2 cells; assay type: cell-based; settings: 48 hours
T1 construct: levels of GTP-loaded endogenous HRas, KRas, and NRas proteins; endogenous in cells; host or cells: MIA PaCa-2
Method: (§1) To determine the effect of α3β-HBSSOS on Sos-mediated Ras activation in cells we treated MIA PaCa-2 cells, which harbor oncogenic KRas, with α3β-HBSSOS, control peptides, or vehicle control for 48 hours. Utilizing the RBD-pulldown assay we determined the levels of GTP-loaded endogenous HRas, KRas, and NRas proteins. As expected, MIA PaCa-2 cells display GTP-loading of all isoforms at steady state when treated with the vehicle control (FIGS. 11A-B).

wild type NRas = biological target: T2, wild type NRas (Homo sapiens, UniProt P01111); experiment: RBD-pulldown of GTP-loaded Ras in MIA PaCa-2 cells; assay type: cell-based; settings: 48 hours
T2 construct: levels of GTP-loaded endogenous HRas, KRas, and NRas proteins; endogenous in cells; host or cells: MIA PaCa-2
T2 sequence (P01111 whole entry): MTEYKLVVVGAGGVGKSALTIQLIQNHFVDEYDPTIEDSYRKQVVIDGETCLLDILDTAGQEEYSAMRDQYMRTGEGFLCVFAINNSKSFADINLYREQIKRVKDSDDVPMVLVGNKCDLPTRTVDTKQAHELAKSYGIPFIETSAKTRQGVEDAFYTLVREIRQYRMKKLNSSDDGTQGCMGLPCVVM
Method: as §1

[2] = biological target: 6×His-tagged HRas WT 1-166 (UniProt P01112); experiment: in vitro pull-down: fluorescein-tagged peptide on 6×His-HRas 1-166 / Ni-NTA beads, in-gel fluorescence

| Molecule | effect on cell growth relative to vehicle control [1] | GTP-loading of wild type HRas (wild type HRas) | GTP-loading of wild type NRas (wild type NRas) | fold greater affinity than α-HBSSOS [2] |
| --- | --- | --- | --- | --- |
| CC[C@H](C)[C@H](NC(=O)CN1C/C=C\CCC(=O)N[C@@H](Cc2ccccc2)C(=O)N[C@@H](CCC(=O)O)C1=O)C(=O)N[C@@H](Cc1ccc(O)cc1)C(=O)N[C@@H](CCCNC(=N)N)C(=O)N[C@@H](CC(C)C)C(=O)N[C@@H](CCC(=O)O)C(=O)N[C@@H](CC(C)C)C(=O)N[C@@H](CC(C)C)C(=O)N[C@@H](CCCCN)C(=O)N[C@@H](C)C(=O)N[C@@H](CCC(=O)O)C(=O)N[C@@H](CCC(=O)O)C(=O)N[C@@H](C)C(=O)N[C@@H](CC(N)=O)C(N)=O [α-HBSSOS, reference compound] | no effect on cell growth |  |  |  |
| ZAEG*iYRLeLLKaEAAA-NH2 [α3β-HBSMUT] | no effect on cell growth | not | not |  |
| B1 |  |  |  | 50 fold |

From patent publication US20170066801A1, “ALPHA3BETA HYDROGEN BOND SURROGATE MACROCYCLES AS MODULATORS OF RAS” (NEW YORK UNIVERSITY, priority 2014, published 2017)
